Reference: US20150328377A1, “COMPOSITION OF D-ALPHA HYDROXY ACIDS AND ANTIMICROBIALS” (BACTERIN INTERNATIONAL, INC., priority 2012, published 2015)
Where “and” joins values, the source holds several entries; their conditions need not be identical. Equal entries are not always repeated.

Tested on: S. aureus
Experiment: microplate biofilm formation assay (crystal violet)
Format: cell-based
Set-up: key to Relative Biofilm Score: crystal violet conc. / non-treated control conc. (1 = control)
Procedure: The synergy between a D-alpha hydroxy acid and an antimicrobial agent was determined through a standard microplate biofilm formation assay (Antimicrob Agents Chemother. 2009, 53, 4159-4166—which is incorporated in its entirety by reference). […] Before incubation each well received about 0, about 2, about 20, or about 200 μg/mL L- or D-lactic acids and about 0.0 or about 0.5 μg/mL chlorhexidine (CHX). The plates were incubated for approximately 20 hours at about 37° C. and then the supernatant of the wells was removed. Each well was gently washed 3 times with phosphate buffered saline, and the biofilm was fixed by incubating the plates at about 60° C. for about 1 hour. The biofilm was then stained by incubating at about 37° C. in about 100 μL about 0.5% crystal violet for about 20 minutes. The plates were then thoroughly rinsed with tap water to remove any excess crystal violet and dried. The residual crystal violet was then extracted with about 200 μL of about 33% acetic acid. About 150 μL of the about 33% acetic acid extractant was then diluted with about 2000 μL acetonitrile and the quantity of crystal violet was determined by measuring the absorbance of the resulting solution at about 590 nanometers. The concentration of crystal violet is directly proportional to the amount of biofilm formation in each well. Each set of concentrations was measured at least four times. The average crystal violet concentration was divided by the average crystal violet concentration for a non-treated control (about 0.0 μg/mL CHX and about 0.0 μg/mL lactic acid) to obtain a relative biofilm formation score. In the same manner as Example 1, the synergy between a D-alpha hydroxy acid and the combination of rifampin and minocycline was determined. […] Before incubation each well received about 0 μg/mL or about 200 μg/mL of L- or D-lactic acid and about 0 ng/mL or about 5 ng/mL each of rifampin and minocycline. The plates were incubated for about 20 hours at about 37° C. and then the supernatant of the wells was removed. The quantity of biofilm formation in each well was determined using the protocol detailed in Example 1.

[1] = 2 μg/mL lactic acid combined with 0.5 μg/mL CHX
[2] = 2 μg/mL lactic acid, 0.0 μg/mL CHX
[3] = 20 μg/mL lactic acid combined with 0.5 μg/mL CHX
[4] = 20 μg/mL lactic acid, 0.0 μg/mL CHX
[5] = 200 μg/mL lactic acid combined with 5.0 ng/mL Rif/Min, Table 2
[6] = 200 μg/mL lactic acid combined with 0.5 μg/mL CHX
[7] = 200 μg/mL lactic acid, 0.0 μg/mL CHX
[8] = 200 μg/mL lactic acid, 0.0 ng/mL Rif/Min, Table 2

Row | Compound | Relative Biofilm Score (0.5 μg/mL CHX alone (0 μg/mL lactic acid), relative to non-treated control, values approximate) | Relative Biofilm Score [1] | Relative Biofilm Score [2] | Relative Biofilm Score [3] | Relative Biofilm Score [4] | Relative Biofilm Score [5] | Relative Biofilm Score [6] | Relative Biofilm Score [7] | Relative Biofilm Score [8] | effect on biofilm formation (alone or in combination with chlorhexidine at any concentration) | effect on biofilm formation (by itself or combined with rifampin and minocycline) | effect on biofilm formation (combined with chlorhexidine, not by itself) | effect on biofilm formation (combined with rifampin and minocycline, not by itself)
1 | [H]/N=C(\N/C(=N/[H])NCCCCCCNC(=N)NC(=N)Nc1ccc(Cl)cc1)Nc1ccc(Cl)cc1 [CHX, chlorhexidine] | 0.26 ± 0.04 and 0.26 ± 0.05 | – | – | – | – | – | – | – | – | – | – | – | –
2 | C[C@H](O)C(=O)O [L-Lactic Acid, L-lactic acid] | – | 0.23 ± 0.05 | 1.01 ± 0.20 | 0.33 ± 0.08 | 1.06 ± 0.18 | 0.43 ± 0.03 | 0.27 ± 0.07 | 1.16 ± 0.18 | 1.04 ± 0.15 | did not show any statistically significant effects on biofilm formation | did not show any reduction in biofilm formation | – | –
3 | C[C@@H](O)C(=O)O [D-Lactic Acid, D-lactic acid] | – | 0.19 ± 0.03 | 1.07 ± 0.24 | 0.12 ± 0.03 | 1.11 ± 0.17 | 0.27 ± 0.04 | 0.04 ± 0.01 | 1.10 ± 0.20 | 0.92 ± 0.24 | – | – | statistically significant dose dependent decrease in biofilm formation | statistically significant decrease in biofilm formation
